What was measured:
[1] = molecular target: T1, porcine pancreatic lipase (PPL) (Sus scrofa, UniProt P00591); conditions: pig, 3 h, pH 11.5
T1 sequence (P00591 1-450): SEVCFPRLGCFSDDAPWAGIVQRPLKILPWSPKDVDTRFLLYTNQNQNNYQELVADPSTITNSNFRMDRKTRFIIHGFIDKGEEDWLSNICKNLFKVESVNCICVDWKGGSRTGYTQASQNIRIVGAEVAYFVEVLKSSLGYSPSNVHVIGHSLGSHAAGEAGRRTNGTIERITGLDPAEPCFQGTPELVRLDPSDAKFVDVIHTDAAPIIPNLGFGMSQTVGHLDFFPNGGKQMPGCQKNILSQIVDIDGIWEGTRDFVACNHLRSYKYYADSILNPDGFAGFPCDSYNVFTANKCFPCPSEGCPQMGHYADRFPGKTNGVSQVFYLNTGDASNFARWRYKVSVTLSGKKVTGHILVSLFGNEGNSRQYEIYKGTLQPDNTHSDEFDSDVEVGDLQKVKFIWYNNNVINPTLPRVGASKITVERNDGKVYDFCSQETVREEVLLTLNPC
T1 sequence (P02703 23-112 partner): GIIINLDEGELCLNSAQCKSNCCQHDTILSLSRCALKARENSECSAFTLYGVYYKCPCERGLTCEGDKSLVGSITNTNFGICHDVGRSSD
Text: Because many fatty acids are only partially ionised at pH 6.8, direct titration gives only partial picture of the extent of lipid digestion, instead back titration to pH 11.5 or GC-FAME analysis is required to estimate the full extent of digestion.

[2] = tested on: rabbit gastric lipase (RGL) followed by porcine pancreatic lipase (PPL)
Experimental: 10 wt % oil in water emulsions stabilised by 0.3 wt % polyoxyethylene sorbitan mono-oleate (Tween® 80) were prepared by mixing the Tween 80 into the oil phase at 40° C., then mixing with the water phase using a magnetic stirrer. An emulsion was then created using a Hielscher UP 400S ultrasonic probe homogeniser equipped with a 5 mm diameter rod-like probe by applying 100% amplitude at 100% cycle for 2 minutes whilst the sample was cooled using ice water.
The lipid emulsion (2 mL) containing 200 mg of fat was subjected to gastrointestinal in vitro lipolysis. […] For gastric digestion, the sample was incubated for 90 minutes with 8.5 mL of simulated gastric fluid (SGF), which consisted of 150 mM NaCl, 450 U/mL pepsin, 18 U/mL rabbit gastric lipase at 37° C. and a pH of 5.5.
The intestinal digestion step was performed in the pH stat where the pH was kept constant at 6.8 by addition of NaOH (0.05 M). […] The intestinal digestion step starts when the temperature reaches 37±0.5° C. The pH was adjusted to pH 6.8 and after incubation of two minutes at this pH and temperature, a pancreatin solution (5 mM tris, 150 mM NaCl at pH 6.8) was added. The final composition of the intestinal fluid was 10 mM CaCl2, 12 mM mixed bile salts, 0.75 mM phospholipid, 150 mM NaCl and 4 mM tris(hydroxymethyl)aminomethane buffer. The intestinal digestion step was carried out for 3 hours in a titration manager from Radiometer. During the intestinal phase of digestion, the kinetics of digestion were followed using a pH-stat (TIM856, Radiometer) technique and expressed as titratable acid (rather than fatty acid) that was calculated by the equation: TA=VNaOH×0:05×1000
TA: Total titratable acid released, mmol; VNaOH: volume of NaOH used to titrate the released acid in 3 h, mL.

SMILES: CCCC(=O)OCC(COC(=O)CCC)OC(=O)CCC [tributyrin]
- Extent of digestion [1]: 101.5±0.9%
- Total amount of acid released ([2]; rabbit (gastric lipase), pig (pancreatic lipase), 3 h, pH 6.8): 381 ± 20 µmol
- Initial lipolysis rate in SIF ([2]; rabbit (gastric lipase), pig (pancreatic lipase), pH 6.8): 44.1 ± 8.8 µmol/min
- Lipolysis by gastric lipase ([2]; rabbit, 90 min, 19 mg/mL, pH 5.5): ~60%

Source: patent US12661334B2, “Dietary butyrate and its uses” (SOCIETE DES PRODUITS NESTLE S.A., priority 2019, dated 2026)
